Experiment [1] has as its system pTPF1/4B full-length HCV RNA replicon. Nature of the experiment: Inhibition of replication of full-length HCV RNA replicon by interferon (core antigen in Huh7 cells). The experiment is classed as cell-based, hepatitis C virus (genotype 1b). The conditions noted are these: pTPF1/4B RNA in Huh7 cells; interferon 0.1 to 300 IU/ml for 24 hours; core antigen in cells vs no-interferon control. The text has this: (§1) Evaluation of an inhibitory action of interferon on the replication of the HCV RNA replicon was attempted using the full-length HCV RNA replicon. The full-length HCV RNA used for the evaluation of the inhibitory action of interferon was pTPF1/4B which was replicable with high efficiency in Huh7 cells in Example 4 and a chimera between AHC1 obtained in Example 6 and pTPF1/4B was also used. As for a chimera vector, the full-length HCV DNA pTPF1 was digested with restriction enzymes, Age I and Bsr GI and a fragment obtained by digesting AHC1 with restriction enzymes, Age I and Bsr GI were ligated to and inserted into the region of the cleavage of pTPF1, thereby preparing HCV DNA pTPF1/AHC1_AgeBsr in which the structural protein region of AHC1 was inserted. […]
(§2) At twenty four hours after the culture was started, the medium was replaced with culture medium dissolving various concentrations (from 0.1 IU/ml to 300 IU/ml) of interferon. […] Cell pellet was dissolved in 50 μl of RIPA buffer (20 mM Tris-HCl (pH 7.5), 150 mM NaCl, 1 mM EDTA, 1% NP40, 0.1% Deoxycholate, 0.1% SDS, Complete protease inhibitor cocktail (Roche diagnostics corporation) and supernatant was collected by centrifugation at 10 k rpm for 5 minutes. The supernatant in an amount of 5 μl was measured using a kit for HCV core antigen (FUJIREBIO, Lumipulse).

In experiment [2] the test system is pTPF1/AHC1_AgeBsr full-length HCV RNA replicon. The experiment is described as above. The format is cell-based, hepatitis C virus (genotype 1b). As to conditions: interferon 0.1 to 300 IU/ml for 24 hours, core antigen in cells vs no-interferon control.
Description: as §1, §2

A value given as a limit tells only on which side of the number the result lay.

Consider interferon, for which the “Inhibitory activity for replication of HCV RNA replicon: IC50” value in experiment [1] is recorded as greater than 300 IU/m; in experiment [2] it was 33 IU/m.

Source of the values: patent US20100173298A1, “HCV GENE” (priority 2007, published 2010).
